Assays:
Settings in all cases: 11-point 3-fold dilution, qPCR readout
FGFR3 = biological target: T1, FGFR3 (Homo sapiens, UniProt P22607); experiment: Kinase binding assay (Kd), FGFR3
T1 construct: made in house; host or cells: E. coli host derived from BL21, infected with T7 phage
Experimental: (§1) Kinase-tagged T7 phage strains were prepared in an E. coli host derived from the BL21 strain. E. coli were grown to log-phase and infected with T7 phage and incubated with shaking at 32° C. until lysis. The lysates were centrifuged and filtered to remove cell debris. Streptavidin-coated magnetic beads were treated with biotinylated small molecule ligands for 30 minutes at room temperature to generate affinity resins for kinase assays. The liganded beads were blocked with excess biotin and washed with blocking buffer SeaBlock (Pierce), 1% BSA, 0.05% Tween 20, 1 mM DTT to remove unbound ligand and to reduce non-specific binding. Binding reactions were assembled by combining kinases, liganded affinity beads, and test compounds in 1× binding buffer (20% SeaBlock, 0.17×PBS, 0.05% Tween 20, 6 mM DTT).
(§2) Test compounds were prepared as 111X stocks in 100% DMSO. Kds were determined using an 11-point 3-fold compound dilution series with three DMSO control points. All compounds for Kd measurements are distributed by acoustic transfer (non-contact dispensing) in 100% DMSO. The compounds were then diluted directly into the assays such that the final concentration of DMSO was 0.9%. All reactions performed in polypropylene 384-well plate. Each was a final volume of 0.02 ml. The assay plates were incubated at room temperature with shaking for 1 hour and the affinity beads were washed with wash buffer (lx PBS, 0.05% Tween 20). The beads were then re-suspended in elution buffer (lx PBS, 0.05% Tween 20, 0.5 μM non-biotinylated affinity ligand) and incubated at room temperature with shaking for 30 minutes. The kinase concentration in the eluates was measured by qPCR.
(§3) Binding constants were calculated with a standard dose-response curve using the Hill equation: […]
(§4) The Hill Slope was set to −1. Curves were fitted using a non-linear least square fit with the Levenberg-Marquardt algorithm.

FGFR1 = biological target: T2, FGFR1 (Homo sapiens, UniProt P11362); experiment: Kinase binding assay (Kd), FGFR1
T2 construct: made in house; host or cells: E. coli host derived from BL21, infected with T7 phage
T2 sequence (P11362 22-822): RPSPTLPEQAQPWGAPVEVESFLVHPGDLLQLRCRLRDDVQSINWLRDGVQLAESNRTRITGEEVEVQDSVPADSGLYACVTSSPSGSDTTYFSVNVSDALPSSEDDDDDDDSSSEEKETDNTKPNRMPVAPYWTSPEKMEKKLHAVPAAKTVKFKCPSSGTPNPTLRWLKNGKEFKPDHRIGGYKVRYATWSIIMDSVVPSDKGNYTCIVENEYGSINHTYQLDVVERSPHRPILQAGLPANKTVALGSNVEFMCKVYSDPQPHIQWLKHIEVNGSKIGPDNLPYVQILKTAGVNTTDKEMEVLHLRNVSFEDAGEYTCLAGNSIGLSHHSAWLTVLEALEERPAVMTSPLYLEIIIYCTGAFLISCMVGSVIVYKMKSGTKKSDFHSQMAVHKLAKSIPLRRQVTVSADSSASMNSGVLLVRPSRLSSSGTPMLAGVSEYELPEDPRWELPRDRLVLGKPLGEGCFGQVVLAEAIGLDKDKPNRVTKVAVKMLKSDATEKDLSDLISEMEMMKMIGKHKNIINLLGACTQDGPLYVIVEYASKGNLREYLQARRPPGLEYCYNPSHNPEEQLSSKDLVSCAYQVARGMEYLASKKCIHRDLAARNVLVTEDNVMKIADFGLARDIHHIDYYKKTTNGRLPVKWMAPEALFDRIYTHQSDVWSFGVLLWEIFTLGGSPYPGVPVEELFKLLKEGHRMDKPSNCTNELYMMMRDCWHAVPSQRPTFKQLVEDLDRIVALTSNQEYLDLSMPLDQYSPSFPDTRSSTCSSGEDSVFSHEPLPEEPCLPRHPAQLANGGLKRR
Experimental: as §1, §2, §3, §4

FGFR4 = biological target: T3, FGFR4 (Homo sapiens, UniProt P22455); experiment: Kinase binding assay (Kd), FGFR4
T3 construct: made in house; host or cells: E. coli host derived from BL21, infected with T7 phage
T3 sequence (P22455 22-802): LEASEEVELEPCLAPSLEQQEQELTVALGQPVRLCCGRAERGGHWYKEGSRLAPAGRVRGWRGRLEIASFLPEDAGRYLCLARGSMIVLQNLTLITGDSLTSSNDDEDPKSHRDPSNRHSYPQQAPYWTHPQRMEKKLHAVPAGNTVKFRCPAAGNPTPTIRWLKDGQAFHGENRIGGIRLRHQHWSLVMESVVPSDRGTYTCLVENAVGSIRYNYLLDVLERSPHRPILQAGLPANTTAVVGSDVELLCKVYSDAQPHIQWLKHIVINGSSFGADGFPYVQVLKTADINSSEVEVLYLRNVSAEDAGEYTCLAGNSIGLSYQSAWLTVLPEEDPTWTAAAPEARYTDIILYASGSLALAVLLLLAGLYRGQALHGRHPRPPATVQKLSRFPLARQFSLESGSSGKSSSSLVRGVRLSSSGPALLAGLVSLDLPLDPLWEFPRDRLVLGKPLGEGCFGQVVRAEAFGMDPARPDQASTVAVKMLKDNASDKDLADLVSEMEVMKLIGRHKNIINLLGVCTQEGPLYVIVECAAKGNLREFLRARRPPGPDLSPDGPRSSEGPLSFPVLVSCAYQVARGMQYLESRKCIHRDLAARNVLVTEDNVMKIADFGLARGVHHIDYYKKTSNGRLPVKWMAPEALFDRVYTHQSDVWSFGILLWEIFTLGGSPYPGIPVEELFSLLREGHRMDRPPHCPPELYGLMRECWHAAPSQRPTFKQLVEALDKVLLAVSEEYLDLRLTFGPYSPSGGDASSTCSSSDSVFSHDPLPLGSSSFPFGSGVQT
Experimental: as §1, §2, §3, §4

FGFR2 = biological target: T4, FGFR2 (Homo sapiens, UniProt P21802); experiment: Kinase binding assay (Kd), FGFR2
T4 construct: made in house; host or cells: E. coli host derived from BL21, infected with T7 phage
T4 sequence (P21802 22-821): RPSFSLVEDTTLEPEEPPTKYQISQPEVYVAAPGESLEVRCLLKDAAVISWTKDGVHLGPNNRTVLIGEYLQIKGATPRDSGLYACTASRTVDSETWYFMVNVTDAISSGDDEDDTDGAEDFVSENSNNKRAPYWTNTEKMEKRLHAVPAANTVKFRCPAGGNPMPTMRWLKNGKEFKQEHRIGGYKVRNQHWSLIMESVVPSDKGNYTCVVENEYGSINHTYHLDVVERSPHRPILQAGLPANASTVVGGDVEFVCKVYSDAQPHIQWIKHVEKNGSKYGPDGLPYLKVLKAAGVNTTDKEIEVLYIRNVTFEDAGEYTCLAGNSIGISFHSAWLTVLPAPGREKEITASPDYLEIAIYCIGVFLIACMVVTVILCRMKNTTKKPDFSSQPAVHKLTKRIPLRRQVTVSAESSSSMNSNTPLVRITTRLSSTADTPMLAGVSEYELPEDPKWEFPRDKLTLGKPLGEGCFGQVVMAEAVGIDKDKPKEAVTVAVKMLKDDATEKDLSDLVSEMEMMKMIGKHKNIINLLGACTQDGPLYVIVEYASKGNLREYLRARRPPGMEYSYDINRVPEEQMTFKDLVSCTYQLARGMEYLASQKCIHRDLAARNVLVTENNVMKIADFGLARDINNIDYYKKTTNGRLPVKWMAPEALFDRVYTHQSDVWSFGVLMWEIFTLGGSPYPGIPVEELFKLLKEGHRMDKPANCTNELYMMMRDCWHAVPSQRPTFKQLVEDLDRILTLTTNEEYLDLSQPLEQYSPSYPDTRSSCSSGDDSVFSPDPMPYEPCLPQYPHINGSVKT
Experimental: as §1, §2, §3, §4

FGFR3 (V555M) = biological target: T5, FGFR3 (V555M) (Homo sapiens, UniProt P22607, V555M); experiment: Kinase binding assay (Kd), FGFR3 (V555M)
T5 construct: made in house; host or cells: E. coli host derived from BL21, infected with T7 phage
T5 sequence (P22607 23-806 V555M): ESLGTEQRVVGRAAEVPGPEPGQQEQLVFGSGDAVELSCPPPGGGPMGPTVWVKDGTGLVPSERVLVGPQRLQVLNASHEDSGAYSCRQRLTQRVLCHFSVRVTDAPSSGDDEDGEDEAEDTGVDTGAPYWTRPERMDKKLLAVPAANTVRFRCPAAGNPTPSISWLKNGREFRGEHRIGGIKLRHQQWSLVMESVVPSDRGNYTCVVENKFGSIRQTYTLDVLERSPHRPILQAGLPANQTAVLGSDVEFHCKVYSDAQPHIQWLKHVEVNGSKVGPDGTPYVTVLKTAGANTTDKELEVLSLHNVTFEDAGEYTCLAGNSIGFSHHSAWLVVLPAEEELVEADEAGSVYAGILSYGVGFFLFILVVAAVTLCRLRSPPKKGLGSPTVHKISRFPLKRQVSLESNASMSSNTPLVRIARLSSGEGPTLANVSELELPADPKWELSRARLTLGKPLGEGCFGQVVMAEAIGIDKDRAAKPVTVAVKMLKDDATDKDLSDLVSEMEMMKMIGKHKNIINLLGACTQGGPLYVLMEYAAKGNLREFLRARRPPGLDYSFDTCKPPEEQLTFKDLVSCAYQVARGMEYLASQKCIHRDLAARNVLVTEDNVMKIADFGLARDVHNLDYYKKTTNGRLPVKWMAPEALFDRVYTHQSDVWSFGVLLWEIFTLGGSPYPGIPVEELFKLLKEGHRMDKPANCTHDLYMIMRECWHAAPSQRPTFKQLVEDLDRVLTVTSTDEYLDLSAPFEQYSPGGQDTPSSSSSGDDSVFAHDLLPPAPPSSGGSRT
Experimental: as §1, §2, §3, §4

T1 sequence (P22607 23-806): as the sequence (P22607 23-806 V555M) above, with M533V counted along it

SMILES	Kd (FGFR3)	Kd (FGFR1)	Kd (FGFR4)	Kd (FGFR2)	Kd (FGFR3 (V555M))
COc1cc(Nc2ncc(C)c(-c3c[nH]c4c(OC)cccc34)n2)ccc1N=S(C)(C)=O [Example 33, N-[4-[[dimethyl(oxo)-λ^6-sulfanylidene]amino]-3-methoxy-phenyl]-4-(7-methoxy-1H-indol-3-yl)-5-methyl-pyrimidin-2-amine]	19 nM	4 nM	120 nM	6 nM	2 nM
Cc1ccc2c(-c3nc(Nc4ccc(N5CCS(=N)(=O)CC5)cc4)ncc3C)c[nH]c2c1 [Example 34, N-[4-(1-imino-1-oxo-1,4-thiazinan-4-yl)phenyl]-5-methyl-4-(6-methyl-1H-indol-3-yl)pyrimidin-2-amine]	30 nM	14 nM	230 nM	39 nM	2 nM
COc1cc(N2CCS(=N)(=O)CC2)ccc1Nc1ncc(Cl)c(-c2c[nH]c3ccccc23)n1 [Example 35, 5-Chloro-N-[4-(1-imino-1-oxo-1,4-thiazinan-4-yl)-2-methoxy-phenyl]-4-(1H-indol-3-yl)pyrimidin-2-amine]	130 nM	72 nM	86 nM	200 nM	9 nM
COc1cc(S(C)(=N)=O)ccc1Nc1ncc(Cl)c(-c2c[nH]c3ccccc23)n1 (stereo not shown) [Example 36, 5-Chloro-4-(1H-indol-3-yl)-N-[2-methoxy-4-(methylsulfonimidoyl)-phenyl]pyrimidin-2-amine]	89 nM	72 nM	57 nM	67 nM	4 nM
CN=S(C)(=O)c1ccc(Nc2ncc(Cl)c(-c3c[nH]c4ccccc34)n2)c(OC)c1 (stereo not shown) [Example 37, 5-Chloro-N-[4-(N,S-dimethylsulfonimidoyl)-2-methoxy-phenyl]-4-(1H-indol-3-yl)pyrimidin-2-amine]	290 nM	500 nM	120 nM	1200 nM	28 nM
CCN1CCS(=O)(=Nc2ccc(Nc3ncc(Cl)c(-c4c[nH]c5ccccc45)n3)c(OC)c2)CC1 [Example 39, 5-Chloro-4-(1H-indol-3-yl)-N-[2-methoxy-4-[(4-ethyl-1-oxo-1,4-thiazinan-1-ylidene)-amino]phenyl]pyrimidin-2-amine]	57 nM	58 nM	66 nM	170 nM	6 nM
COc1cc(N=S2(=O)CCN(C(C)C)CC2)ccc1Nc1ncc(Cl)c(-c2c[nH]c3ccccc23)n1 [Example 40, 5-Chloro-4-(1H-indol-3-yl)-N-[4-[(4-isopropyl-1-oxo-1,4-thiazinan-1-ylidene)amino]-2-methoxy-phenyl]pyrimidin-2-amine]	110 nM	80 nM	100 nM	860 nM	10 nM
COc1cc(S(C)(=N)=O)ccc1Nc1ncc(Cl)c(-n2ccc3ccccc32)n1 (stereo not shown) [Example 41, 5-chloro-4-indol-1-yl-N-[2-methoxy-4-(methyl-sulfonimidoyl)phenyl]pyrimidin-2-amine]	6000 nM	9000 nM	6300 nM	18000 nM	180 nM
COc1cc(S(C)(=N)=O)ccc1Nc1ncc(C)c(-n2ccc3ccccc32)n1 (stereo not shown) [Example 42, 4-Indol-1-yl-N-[2-methoxy-4-(methylsulfonimidoyl)phenyl]-5-methyl-pyrimidin-2-amine]	1800 nM	3000 nM	4200 nM	3300 nM	110 nM
COc1cc(S(C)(=N)=O)ccc1Nc1nccc(-n2ccc3ccccc32)n1 (stereo not shown) [Example 43, 4-Indol-1-yl-N-[2-methoxy-4-(methylsulfonimidoyl)phenyl]-pyrimidin-2-amine]	3400 nM	5000 nM	7500 nM	4000 nM	680 nM
COc1cc(N2CCS(=N)(=O)CC2)ccc1Nc1ncc(Cl)c(-n2ccc3ccccc32)n1 [Example 44, 5-Chloro-N-[4-(1-imino-1-oxo-1,4-thiazinan-4-yl)-2-methoxy-phenyl]-4-indol-1-yl-pyrimidin-2-amine]	2800 nM	2200 nM	4100 nM	15000 nM	42 nM

From US20230115945A1, “AMINOPYRIMIDINE COMPOUNDS” (TYRA BIOSCIENCES, INC., priority 2019, published 2023)
